Experimental findings from paper PMC6518372, “An enzymatically stable GIP/xenin hybrid peptide restores GIP sensitivity, enhances beta cell function and improves glucose homeostasis in high-fat-fed mice” (Diabetologia, 2016) are described below.

One data set has as its target purified porcine DPP-4 (Sus scrofa, UniProt P22411). The data set is described as follows: DPP-4 degradation / in vitro DPP-4 half-life. As to conditions: 20 μg peptide, 5 mU purified DPP-4, up to 12 h, HPLC. As for the experimental part:
Peptide (20 μg) DPP-4 degradation profiles (5 μl purified DPP-4, 5 mU; Sigma-Aldrich, UK) were assessed as described previously.
For calculation of experimental molecular masses, peptide samples (1 µg) were mixed with α-cyano-4-hydroxycinnamic acid (1 µg) and applied to a Voyager-DE BioSpectrometry Workstation and mass-to-charge (m/z) ratio verses peak intensity recorded by MALDI-TOF mass spectrometry. DPP-4 half-life was assessed by incubating peptides (37°C in 50 mmol/L TEA-HCl; pH 7.8) with 5 mU purified porcine DPP-4 for 0, 1, 2, 4, 8 and 12 h. Degradation profiles were obtained using rp-HPLC analysis and HPLC peak area data used to calculate percentage intact peptide remaining at each time point.

In the next data set the test system is BRIN-BD11 cells. The data set is described as follows: Intracellular Ca2+ in BRIN-BD11 cells (FLIPR Calcium 5). Format: cell-based, rat. As to conditions: peptide 10^−6 mol/l, 5.6 mmol/l glucose, 5 min, AUC 0–300 s. As for the experimental part:
BRIN-BD11 cells were used to assess the insulin-releasing activity of test peptides, as described previously. This hybrid cell line (ECACC 10033003) was originally generated in-house by electrofusion of a primary culture of New England Deaconess Hospital (NEDH) rat pancreatic islets with RINm5F (a cell line derived from an NEDH rat insulinoma), and has been mycoplasma eradicated. For details of experimental conditions please see ESM Methods. Insulin was measured by radioimmunoassay. We assessed the impact of GIP and neurotensin receptors on (DAla^2)GIP/xenin-8-Gln-induced insulin secretion in BRIN-BD11 cells. Cells were incubated in 5.6 mmol/l glucose with (DAla^2)GIP/xenin-8-Gln (10^−6 mol/l) alone or in combination with the GIP receptor antagonist GIP(6-30)Cex-K^40[Pal] [32] (where Pal is palmitate) or the neurotensin receptor antagonist SR142948A (Sigma, Poole, UK), and insulin secretion determined as described above. In addition, to determine mechanisms, intracellular Ca^2+ was also measured in BRIN-BD11 cells following treatment with test peptides (10^−6 mol/l), using a Flexstation scanning fluorometer (FLIPR Calcium 5 assay kit; Molecular Devices, Sunnyvale, CA, USA), as described previously.

Data set [1] has as its system high-fat-fed mice. The data set is described as follows: Subchronic 21 day twice-daily treatment: energy intake, body weight, body composition, non-fasted glucose and insulin. Format: in vivo, mouse. Conditions: 25 nmol/kg i.p. twice daily. The protocol: (§1) Twice-daily (09:30 and 17:30 hours) i.p. injections of saline vehicle, (DAla^2)GIP or (DAla^2)GIP/xenin-8-Gln hybrid (both at 25 nmol/kg) were administered for 21 days in high-fat-fed mice. Energy intake and body weight were monitored daily and non-fasting blood glucose and plasma insulin concentrations were assessed at 3 day intervals. On day 21, a non-fasted 24 h glucose profile was conducted. At the end of the treatment period, i.p. glucose tolerance (18 mmol/kg), biological response to GIP (18 mmol/kg glucose in combination with native GIP [25 nmol/kg], i.p.) and insulin sensitivity (15 U/kg; i.p.) tests were performed. Terminal analysis included measurement of total body fat and lean mass by dual-energy X-ray absorptiometry (DEXA) scanning (Piximus Densitometer; Inside Outside Sales, Fitchburg, WI, USA) and extraction of pancreatic tissue for analysis as detailed below.
Blood samples were collected from the cut tip on the tail vein of conscious mice into chilled fluoride/heparin glucose micro-centrifuge tubes (Sarstedt, Numbrecht, Germany). Blood glucose was measured directly using a hand-held Ascencia Contour blood glucose meter (Bayer Healthcare, Newbury, UK). Plasma and pancreatic insulin was assayed by a modified dextran-coated charcoal radioimmunoassay.
In vitro insulin release studies Cells were seeded at a density of 150,000 cells/well in 24-well plates (Nunc, Roskilde, Denmark) and allowed to attach overnight at 37 °C. Culture medium was removed and cells were pre-incubated in Krebs–Ringer bicarbonate buffer (containing 0.5% (w/v) BSA, pH 7.4) supplemented with 1.1 mmol/l glucose for 40 min at 37 °C. Following the pre-incubation, experiments (n=8) were performed in presence of glucose (5.6 or 16.7 mmol/l) with a […]
incubations, aliquots of assay buffer were collected from each well and stored at -20 °C prior to […]
Animals Acute animal studies were conducted in male NIH Swiss mice (12-14 weeks old, Harlan Ltd, UK) maintained on a standard rodent maintenance diet (10% fat, 30% protein and 60% carbohydrate, Trouw Nutrition, UK). Prior to commencement of longer term studies, all animals, except lean controls that continued on rodent maintenance diet, were maintained on a high-fat diet (45% fat, 35% carbohydrate and 20% protein, Special Diet Services, UK) for 12 weeks. This diet […]
individually in an air-conditioned room at 22 ± 2 °C with a 12 h light:12 h dark cycle and had free access to food and water. Animal experiments were carried out in accordance with the UK Animals (Scientific Procedures) Act 1986.
Acute in vivo effects in lean mice For food intake studies, fasted (18 h) mice were given intraperitoneal (i.p) injections of peptides at a dose of 25, 100 or 250 nmol/kg bw. Mice were then allowed free access to normal chow for 180 mins and cumulative food intake measured. For glucose homeostasis and […]

Data set [2] concerns high-fat-fed mice. Nature of the data set: Insulin sensitivity test after 21 day treatment. Format: in vivo, mouse. As to conditions: insulin 15 U/kg i.p., non-fasted high-fat-fed mice after 21 days at 25 nmol/kg twice daily. As for the experimental part: as §1
Fig. 4 Effects of twice-daily administration of (DAla^2)GIP and (DAla^2)GIP/xenin-8-Gln on insulin sensitivity and pancreatic insulin content in high-fat-fed mice. […] Blood glucose was measured (a), area above the curve (AAC) was calculated using identical baseline subtraction for each group (b) and pancreatic insulin content was measured by RIA (c). […]

Where [3] appears, read: 21 days, high-fat-fed mice, vs high-fat-fed controls.

Sequence of purified porcine DPP-4 (P22411 whole entry): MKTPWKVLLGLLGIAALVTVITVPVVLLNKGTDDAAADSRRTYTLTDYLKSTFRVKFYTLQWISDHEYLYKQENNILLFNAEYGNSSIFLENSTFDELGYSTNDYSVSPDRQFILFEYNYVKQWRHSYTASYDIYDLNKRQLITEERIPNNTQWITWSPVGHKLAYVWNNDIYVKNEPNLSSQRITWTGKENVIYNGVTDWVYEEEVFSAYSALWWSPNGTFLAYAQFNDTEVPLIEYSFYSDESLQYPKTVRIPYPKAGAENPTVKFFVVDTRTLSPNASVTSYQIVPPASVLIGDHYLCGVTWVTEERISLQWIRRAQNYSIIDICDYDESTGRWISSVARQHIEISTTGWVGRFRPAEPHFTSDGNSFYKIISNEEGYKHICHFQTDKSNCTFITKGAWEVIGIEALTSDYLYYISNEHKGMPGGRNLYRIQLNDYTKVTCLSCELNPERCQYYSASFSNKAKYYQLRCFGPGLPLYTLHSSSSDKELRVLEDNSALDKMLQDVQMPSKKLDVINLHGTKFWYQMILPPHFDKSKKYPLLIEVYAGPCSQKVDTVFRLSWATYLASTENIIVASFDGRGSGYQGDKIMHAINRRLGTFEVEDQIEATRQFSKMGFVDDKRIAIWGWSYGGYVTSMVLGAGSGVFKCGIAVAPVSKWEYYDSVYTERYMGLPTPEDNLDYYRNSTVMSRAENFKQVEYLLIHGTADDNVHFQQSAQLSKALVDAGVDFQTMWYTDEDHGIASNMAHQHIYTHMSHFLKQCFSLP

Consider `CC[C@H](C)[C@H](NC(=O)[C@H](CO)NC(=O)[C@H](Cc1ccc(O)cc1)NC(=O)[C@H](CC(=O)O)NC(=O)[C@H](CO)NC(=O)[C@@H](NC(=O)[C@H](Cc1ccccc1)NC(=O)[C@@H](NC(=O)CNC(=O)[C@H](CCC(=O)O)NC(=O)[C@@H](C)NC(=O)[C@@H](N)Cc1ccc(O)cc1)[C@@H](C)O)[C@@H](C)CC)C(=O)N[C@@H](C)C(=O)N[C@@H](CCSC)C(=O)N[C@@H](CC(=O)O)C(=O)N[C@@H](CCCCN)C(=O)N[C@H](C(=O)N[C@@H](Cc1c[nH]cn1)C(=O)N[C@@H](CCC(N)=O)C(=O)N[C@@H](CCC(N)=O)C(=O)N[C@@H](CC(=O)O)C(=O)N[C@@H](Cc1ccccc1)C(=O)N[C@H](C(=O)N[C@@H](CC(N)=O)C(=O)N[C@@H](Cc1c[nH]c2ccccc12)C(=O)N[C@@H](CC(C)C)C(=O)N[C@@H](CC(C)C)C(=O)N[C@@H](C)C(=O)N[C@@H](CCC(N)=O)C(=O)N[C@@H](CCCCN)C(=O)NCC(=O)N[C@@H](CCCCN)C(=O)N[C@@H](CCCCN)C(=O)N[C@@H](CC(N)=O)C(=O)N[C@@H](CC(=O)O)C(=O)N[C@@H](Cc1c[nH]c2ccccc12)C(=O)N[C@@H](CCCCN)C(=O)N[C@@H](Cc1c[nH]cn1)C(=O)N[C@@H](CC(N)=O)C(=O)N[C@H](C(=O)N[C@H](C(=O)N[C@@H](CCC(N)=O)C(=O)O)[C@@H](C)O)[C@@H](C)CC)C(C)C)[C@@H](C)CC` [(DAla^2)GIP], for which the “Stability when incubated in the presence of DPP-4” value at purified porcine DPP-4 was “remained fully intact”. In addition, the “Effect on intracellular Ca^2+ concentrations” value in the data set with BRIN-BD11 cells was “Neither, (DAla^2)GIP, xenin-8-Gln nor (DAla^2)GIP/xenin-8-Gln had any effect”. Also, in the data set with high-fat-fed mice [1] (setting [3]), the Body weight result is “no significant effect” and the Cumulative energy intake entry is given as “no significant effect”. Also, in the data set on high-fat-fed mice [1] (day 21, high-fat-fed mice), the “Non-fasting 24 h blood glucose profile” value is “also reduced, but not to the same extent”; the “Total body fat and lean mass (DEXA)” value is “unaltered”. Further, in the data set with high-fat-fed mice [1] (day 21, high-fat-fed mice, vs high-fat-fed controls), the Non-fasted plasma insulin result is “reduced plasma insulin levels compared with high-fat-fed controls on day 21 but the difference did not reach statistical significance”. Besides, the “Non-fasting blood glucose compared with lean controls” value in the data set on high-fat-fed mice [1] (high-fat-fed mice, from day 12 onwards) is “not significantly different from lean controls”. In addition, the “Individual blood glucose levels following exogenous insulin” value in the data set with high-fat-fed mice [2] is “reduced, albeit non-significantly”. Besides, the “Overall glucose-lowering effect of insulin (area above the curve)” value in the data set with high-fat-fed mice [2] (vs control high-fat mice) is given as “significantly (p < 0.001) improved”.
